# Measurements published in US20070293399A1, “SUBSTITUTED DIAMINO-1,3,5-TRIAZINES, PROCESSES FOR THEIR PREPARATION AND THEIR USE AS HERBICIDES AND CROP GROWTH REGULATORS” (Bayer CropScience AG, priority 2006, published 2007).
# Tests used:
# [1] = tested on: Stellaria media, Lolium multiflorum, Amaranthus retroflexus, Sinapis alba, Avena sativa and Setaria viridis; experiment: Pre-emergence herbicidal action (greenhouse pot test); assay type: in vivo; conditions: application rate of 1 kg or less of active substance per hectare; scored visually after 3 to 4 weeks in comparison to untreated controls
# From the text: Seeds or rhizome pieces of mono- and dicotyledonous weed plants were placed in sandy loam in plastic pots and covered with soil. The inventive compounds, which have been formulated in the form of wettable powders or emulsion concentrates, were then applied to the surface of the covering soil as an aqueous suspension or emulsion in different dosages with an application rate of from 600 to 800 l/ha of water (converted).
# [2] = tested on: Sinapis alba, Echinochloa crus-galli, Lolium multiflorum, Stellaria media, Cyperus iria, Amaranthus retroflexus, Setaria viridis, Avena sativa, Lamium …; experiment: Post-emergence herbicidal action (greenhouse pot test); assay type: in vivo; conditions: application rate of 1 kg and less of active substance per hectare; treated at three-leaf stage; scored visually after approx. 3 to 4 weeks in comparison to untreated controls
# Description: Seeds or rhizome pieces of mono- and dicotyledonous weeds were placed in sandy loam in plastic pots, covered with soil and grown in a greenhouse under good growth conditions. Three weeks after the sowing, the test plants were treated at the three-leaf stage. The inventive compounds formulated as spray powders or as emulsion concentrates were sprayed onto the green plant parts in various dosages with an application rate of from 600 to 800 l/ha of water (converted). After the test plants had been left to stand in the greenhouse under optimal growth conditions for approx. 3 to 4 weeks, the action of the preparations was scored visually in comparison to untreated controls. The inventive compositions also had good post-emergence herbicidal activity against a wide spectrum of economically important gramineous and broadleaf weeds.
SMILES,herbicidal action against harmful plants in the pre-emergence method [1],herbicidal action against harmful plants in the post-emergence method [2]
CC(=O)Nc1ncnc(NC2c3cc(F)ccc3CC2C)n1 (racemic) [Compound 1.1],very good herbicidal action,very good herbicidal action
CC(=O)Nc1nc(N[C@@H]2CCCc3ccccc32)nc([C@@H](C)F)n1 [Compound 2.31],very good herbicidal action,very good herbicidal action
CC(=Nc1nc(N[C@H]2c3cc(C)ccc3C[C@@H]2C)nc([C@@H](C)F)n1)N(C)C [Compound 2.156],very good herbicidal action,very good herbicidal action
CCC(=O)Nc1ncnc(N[C@@H]2CCCc3ccccc32)n1 [Compound 2.2],very good herbicidal action,very good herbicidal action
CCCCNC(=S)Nc1nc(N[C@H]2c3cc(C)ccc3C[C@@H]2C)nc([C@@H](C)F)n1 [Compound 2.132],very good herbicidal action,very good herbicidal action
"Cc1ccc2c(c1)[C@H](Nc1ncnc(NC(=O)NC(C)(C)C)n1)[C@@H](C)C2 [Compound 2.43, N-(Tert-butyl)-N′-(4-{[(1R,2S)-2,6-dimethyl-2,3-dihydro-1H-inden-1-yl]amino}-1,3,5triazin-2-yl)urea]",very good herbicidal action,very good herbicidal action
Cc1ccc2c(c1)C(Nc1nc(NC(=O)NC(C)C)nc(C(C)F)n1)C(C)C2 (stereo not shown) [Compound 2.78],very good herbicidal action,very good herbicidal action
COc1ccc(NC(=O)Nc2nc(NC3c4cc(C)ccc4CC3C)nc(C(C)F)n2)cc1 (stereo not shown) [Compound 2.122],very good herbicidal action,very good herbicidal action
CC1Cc2ccc(F)cc2C1Nc1ncnc(NC(=O)C(Cl)(Cl)Cl)n1 (racemic) [Compound 1.2],very good herbicidal action,very good herbicidal action
CCC(=O)Nc1nc(NC2CCOc3c(C)cc(F)cc32)nc(C(C)Cc2ccc(F)cc2)n1 (racemic) [Compound 1.38],very good herbicidal action,very good herbicidal action
CCC(=O)Nc1nc(N[C@H]2c3cc(C)ccc3C[C@@H]2C)nc(C(F)F)n1 [Compound 2.150],very good herbicidal action,very good herbicidal action
Cc1ccc2c(c1)C(Nc1nc(NC(=O)NC3CCCC3)nc(C(C)F)n1)C(C)C2 (stereo not shown) [Compound 2.101],very good herbicidal action,very good herbicidal action
CCCCNC(=O)Nc1nc(NC2c3cc(C)ccc3CC2C)nc(C(C)F)n1 (stereo not shown) [Compound 2.87],very good herbicidal action,very good herbicidal action
Cc1ccc(NC(=O)Nc2ncnc(NC3c4cc(C)ccc4CC3C)n2)cc1 (stereo not shown) [Compound 2.60],very good herbicidal action,very good herbicidal action
C[C@@H](F)c1nc(C=O)nc(N[C@@H]2CCCc3ccccc32)n1 [Compound 2.193],very good herbicidal action,very good herbicidal action
CC(=O)Nc1nc(NC2CCOc3c(C)cc(F)cc32)nc(C2CC2)n1 (racemic) [Compound 1.31],very good herbicidal action,very good herbicidal action
Cc1ccc2c(c1)C(Nc1nc(NC(=S)Nc3ccccc3)nc(C(C)F)n1)C(C)C2 (stereo not shown) [Compound 2.127],very good herbicidal action,very good herbicidal action
CC1Cc2ccc(F)cc2C1Nc1nc(CF)nc(NC(=O)C(Cl)(Cl)Cl)n1 (racemic) [Compound 1.14],very good herbicidal action,very good herbicidal action

SMILES,herbicidal action against harmful plants in the pre-emergence method [1],herbicidal action against harmful plants in the post-emergence method [2]
CCC(=O)Nc1nc(N[C@H]2c3cc(C)ccc3C[C@@H]2C)nc([C@@H](C)F)n1 [Compound 2.14],very good herbicidal action,very good herbicidal action
Cc1ccc2c(c1)C(Nc1nc(NC(=O)C(Cl)(Cl)Cl)nc(C(C)F)n1)CCO2 (racemic) [Compound 1.51],very good herbicidal action,very good herbicidal action
CCOC(=O)CNC(=O)Nc1nc(NC2c3cc(C)ccc3CC2C)nc(C(C)F)n1 (stereo not shown) [Compound 2.111],very good herbicidal action,very good herbicidal action
Cc1ccc2c(c1)[C@H](Nc1nc(NC(=S)NCCc3ccc(Cl)cc3)nc([C@@H](C)F)n1)[C@@H](C)C2 [Compound 2.134],very good herbicidal action,very good herbicidal action
CCOC(CNC(=O)Nc1nc(NC2c3cc(C)ccc3CC2C)nc(C(C)F)n1)OCC (stereo not shown) [Compound 2.106],very good herbicidal action,very good herbicidal action
CCC(=O)Nc1nc(CF)nc(NC2c3cc(F)ccc3CC2C)n1 (racemic) [Compound 1.12],very good herbicidal action,very good herbicidal action
COc1cccc(NC(=O)Nc2nc(N[C@H]3c4cc(C)ccc4C[C@@H]3C)nc([C@@H](C)F)n2)c1 [Compound 2.140],very good herbicidal action,very good herbicidal action
COCc1nc(NC(C)=O)nc(NC2CCc3ccccc32)n1 (racemic) [Compound 1.32],very good herbicidal action,very good herbicidal action
C[C@@H](F)c1nc(N=CN(C)C)nc(N[C@@H]2CCCc3ccccc32)n1 [Compound 2.154],very good herbicidal action,very good herbicidal action
Cc1ccc2c(c1)C(Nc1nc(NC(=O)Nc3ccc(F)cc3)nc(C(C)F)n1)C(C)C2 (stereo not shown) [Compound 2.117],very good herbicidal action,very good herbicidal action
Cc1ccc2c(c1)[C@H](Nc1nc(N=CN3CCCCC3)nc(C(F)F)n1)[C@H](C)C2 [Compound 2.181],very good herbicidal action,very good herbicidal action
Cc1ccc2c(c1)[C@H](Nc1nc(NC(=S)NCc3ccco3)nc([C@@H](C)F)n1)[C@@H](C)C2 [Compound 2.138],very good herbicidal action,very good herbicidal action
Cc1ccc2c(c1)C(Nc1nc(NC(=O)NCc3ccccc3)nc(C(C)F)n1)C(C)C2 (stereo not shown) [Compound 2.103],very good herbicidal action,very good herbicidal action
Cc1ccc2c(c1)C(Nc1nc(NC(=O)Nc3ccccc3)nc(C(C)F)n1)C(C)C2 (stereo not shown) [Compound 2.115],very good herbicidal action,very good herbicidal action
Cc1ccc2c(c1)[C@H](Nc1nc(N=CN(C)C)nc([C@@H](C)F)n1)[C@@H](C)C2 [Compound 2.153],very good herbicidal action,very good herbicidal action
Cc1ccc2c(c1)[C@H](Nc1ncnc(C=O)n1)[C@H](C)C2 [Compound 2.194],very good herbicidal action,very good herbicidal action
CC(=O)Nc1nc(N[C@H]2c3cc(C)ccc3C[C@@H]2C)nc([C@@H](C)F)n1 [Compound 2.13],very good herbicidal action,very good herbicidal action
